Results from patent publication US20240124408A1 (Sanofi, priority 2020, published 2024).

Assays:
human TRPM8 = target: T1, human TRPM8 (Homo sapiens, UniProt Q7Z2W7); assay: In vitro human TRPM8 fluorescence calcium flux assay (recombinant CHO cells, Fluo4-AM, FDSS6000); format: cell-based; conditions: recombinant CHO cells expressing human TRPM8; menthol-related EC50, normalized to 100 μM menthol
T1 construct: expressed in transfected cells; host or cells: CHO (p658 mammalian expression vector)
Description: (§1) In Vitro Pig and Human TRPM8 Fluorescence Calcium Flux Assays
(§2) For functional expression of TRPM8, the full-length cDNA encoding human (NM_024080) and pig (XM_001927892.1) TRPM8 sequences were subcloned into p658 and pcDNA5/FRT/TO mammalian expression vectors, respectively. Engineered recombinant CHO cell lines expressing human or pig TRPM8 were generated. Culture media was Ham-F12 with 10% FCS for both lines, and for the pig cell line only 400 μg/ml hygromycin B and 30 μg/mL blasticidin were added as selection antibiotics (all reagents were obtained from Invitrogen, Fisher Scientific). Cells were grown in culture flasks up to 80% confluence where they were harvested using accutase (Sigma, MO, USA) to detach the cells by enzymatic dissociation and either seeded directly into assay plates or cryopreserved for future use.
(§3) For calcium flux assays, cells were plated into clear base poly-D-lysine coated 384-well plates (BD Biosciences, NJ USA) at a density of 15,000 cells per well in appropriate culture medium and grown overnight. The following day, all medium was removed then the cells were incubated with 2 μM of Fluo4-AM Dye (Molecular Probes) prepared in complete HBSS assay buffer containing 20 mM HEPES, 0.1% BSA, and 2.5 mM probenecid at room temperature for one hour. Following incubation, plates were inserted into a FDSS6000 instrument (Hamamatsu, Photonics, Japan) instrument, where cells were challenged with compounds of the formula (at varying concentrations) and intracellular calcium was measured kinetically for 3 min after addition.
(§4) This protocol allowed the determination of an EC50 value, from the sixteen-point dose response data, for each compound of the formula tested. Maximal fluorescence intensity achieved upon addition of 100 μM menthol (stock solution prepared in ethanol from solid, Sigma-Aldrich) was exported from the FDSS and further analyzed using IDBS XLFit 5. Data were normalized to the average 100 μM menthol response (maximum control wells) included in each plate. The dose response curves from the average of wells for each data point were analyzed by using nonlinear regression of sigmoidal dose response (formula 205). Finally, the (menthol-related) EC50 values (Half maximal effective concentration) were calculated with the best-fit dose curve determined by IDBS XLFit 5 software.

pig TRPM8 = target: T2, pig TRPM8 (Sus scrofa, UniProt F1SM15); assay: In vitro pig TRPM8 fluorescence calcium flux assay (recombinant CHO cells, Fluo4-AM, FDSS6000); format: cell-based; conditions: recombinant CHO cells expressing pig TRPM8; menthol-related EC50, normalized to 100 μM menthol
T2 construct: expressed in transfected cells; host or cells: CHO (pcDNA5/FRT/TO vector; hygromycin B and blasticidin selection)
Description: as §1, §2, §3, §4

T1 sequence (Q7Z2W7 whole entry): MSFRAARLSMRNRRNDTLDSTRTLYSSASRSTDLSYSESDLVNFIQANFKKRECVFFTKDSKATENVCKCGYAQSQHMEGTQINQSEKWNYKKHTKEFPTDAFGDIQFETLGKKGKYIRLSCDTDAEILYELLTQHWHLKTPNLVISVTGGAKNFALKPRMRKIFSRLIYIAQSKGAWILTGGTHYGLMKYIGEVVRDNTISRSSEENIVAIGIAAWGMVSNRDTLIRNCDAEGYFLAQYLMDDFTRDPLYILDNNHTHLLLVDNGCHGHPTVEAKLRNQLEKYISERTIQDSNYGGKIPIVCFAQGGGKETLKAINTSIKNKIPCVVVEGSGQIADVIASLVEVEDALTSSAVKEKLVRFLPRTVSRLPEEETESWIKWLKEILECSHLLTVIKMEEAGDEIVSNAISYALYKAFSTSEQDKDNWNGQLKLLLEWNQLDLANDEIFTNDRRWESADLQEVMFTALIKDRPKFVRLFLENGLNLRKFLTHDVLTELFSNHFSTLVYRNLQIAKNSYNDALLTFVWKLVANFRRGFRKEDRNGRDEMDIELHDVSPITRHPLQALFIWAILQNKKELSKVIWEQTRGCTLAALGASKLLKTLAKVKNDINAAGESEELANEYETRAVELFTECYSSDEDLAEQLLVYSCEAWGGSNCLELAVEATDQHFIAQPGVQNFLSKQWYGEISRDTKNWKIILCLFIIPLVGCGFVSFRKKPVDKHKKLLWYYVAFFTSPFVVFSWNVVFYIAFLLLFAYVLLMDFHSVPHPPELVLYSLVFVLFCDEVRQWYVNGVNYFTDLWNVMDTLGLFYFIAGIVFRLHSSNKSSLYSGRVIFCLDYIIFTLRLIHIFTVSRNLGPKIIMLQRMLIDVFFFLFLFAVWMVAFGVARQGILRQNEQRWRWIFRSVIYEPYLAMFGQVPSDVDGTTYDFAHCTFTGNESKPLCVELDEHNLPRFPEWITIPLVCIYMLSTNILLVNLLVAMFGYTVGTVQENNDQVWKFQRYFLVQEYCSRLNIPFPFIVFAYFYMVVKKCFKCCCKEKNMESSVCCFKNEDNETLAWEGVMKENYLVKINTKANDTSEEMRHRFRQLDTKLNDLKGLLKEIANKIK
T2 sequence (F1SM15 1-1104): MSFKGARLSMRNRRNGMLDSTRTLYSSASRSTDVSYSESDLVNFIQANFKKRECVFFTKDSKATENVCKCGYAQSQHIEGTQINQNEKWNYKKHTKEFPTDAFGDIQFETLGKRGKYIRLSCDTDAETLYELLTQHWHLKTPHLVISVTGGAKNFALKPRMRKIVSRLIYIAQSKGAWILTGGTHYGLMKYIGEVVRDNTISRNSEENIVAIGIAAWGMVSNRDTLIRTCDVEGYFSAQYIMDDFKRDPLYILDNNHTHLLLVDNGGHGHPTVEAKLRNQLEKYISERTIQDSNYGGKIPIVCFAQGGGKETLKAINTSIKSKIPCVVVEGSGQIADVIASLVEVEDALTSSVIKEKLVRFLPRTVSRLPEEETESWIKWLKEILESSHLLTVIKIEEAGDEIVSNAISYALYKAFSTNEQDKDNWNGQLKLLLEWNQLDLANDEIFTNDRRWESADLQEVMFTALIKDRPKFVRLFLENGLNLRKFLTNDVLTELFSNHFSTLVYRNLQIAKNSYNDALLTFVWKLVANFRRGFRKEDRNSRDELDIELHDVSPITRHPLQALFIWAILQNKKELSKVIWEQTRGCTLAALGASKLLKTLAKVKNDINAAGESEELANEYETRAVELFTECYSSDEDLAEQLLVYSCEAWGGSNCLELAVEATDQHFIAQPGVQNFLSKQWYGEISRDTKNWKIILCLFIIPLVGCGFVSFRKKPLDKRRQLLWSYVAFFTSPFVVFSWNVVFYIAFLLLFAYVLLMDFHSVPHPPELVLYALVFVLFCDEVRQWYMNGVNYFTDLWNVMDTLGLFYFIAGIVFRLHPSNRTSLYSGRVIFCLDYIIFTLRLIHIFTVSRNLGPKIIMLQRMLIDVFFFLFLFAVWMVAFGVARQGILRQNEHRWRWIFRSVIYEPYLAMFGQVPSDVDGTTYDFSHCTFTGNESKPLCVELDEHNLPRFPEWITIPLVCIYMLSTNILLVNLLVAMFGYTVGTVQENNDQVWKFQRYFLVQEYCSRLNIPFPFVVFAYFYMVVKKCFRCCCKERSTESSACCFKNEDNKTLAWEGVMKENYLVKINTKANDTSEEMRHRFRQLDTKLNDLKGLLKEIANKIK

Row | SMILES | EC50 (human TRPM8) [nM] | EC50 (pig TRPM8) [nM]
1 | CC(C)[C@@H]1CC[C@@H](C)C[C@@]1(O)C(=O)NCC(=O)c1ccc(F)cc1 [Example 135, (1S,2S,5R)-N-[2-(4-fluorophenyl)-2-oxo-ethyl]-1-hydroxy-2-isopropyl-5-methyl-cyclohexanecarboxamide] | 2.1 | 1.1
2 | CC(C)[C@@H]1CC[C@@H](C)C[C@@]1(O)C(=O)NCC(=O)c1ccc(Cl)cc1Cl [Example 137, (1S,2S,5R)-N-[2-(2,4-dichlorophenyl)-2-oxo-ethyl]-1-hydroxy-2-isopropyl-5-methyl-cyclohexanecarboxamide] | 125 | 41.6
3 | CC(C)[C@@H]1CC[C@@H](C)C[C@@]1(O)C(=O)NCC(=O)c1cc(F)cc(F)c1 [Example 138, (1S,2S,5R)-N-[2-(3,5-difluorophenyl)-2-oxo-ethyl]-1-hydroxy-2-isopropyl-5-methyl-cyclohexanecarboxamide] | 3.8 | 1.7
4 | CC(C)[C@@H]1CC[C@@H](C)C[C@@]1(O)C(=O)NCC(=O)c1cc(F)ccc1F [Example 139, (1S,2S,5R)-N-[2-(2,5-difluorophenyl)-2-oxo-ethyl]-1-hydroxy-2-isopropyl-5-methyl-cyclohexanecarboxamide] | 5.3 | 1.7
5 | CC(C)[C@@H]1CC[C@@H](C)C[C@@]1(O)C(=O)NCC(=O)c1ccccc1Cl [Example 140, (1S,2S,5R)-N-[2-(2-chlorophenyl)-2-oxo-ethyl]-1-hydroxy-2-isopropyl-5-methyl-cyclohexanecarboxamide] | 9.4 | 3.3
6 | Cc1cccc(C(=O)CNC(=O)[C@]2(O)C[C@H](C)CC[C@H]2C(C)C)c1 [Example 141, (1S,2S,5R)-1-hydroxy-2-isopropyl-5-methyl-N-[2-(m-tolyl)-2-oxo-ethyl]cyclohexanecarboxamide] | 2.7 | 1.2
7 | CC(C)[C@@H]1CC[C@@H](C)C[C@@]1(O)C(=O)NCC1(O)CCc2c(Cl)cccc21 (stereo partly drawn) [Example 144, (1S,2S,5R)-N-[(4-chloro-1-hydroxy-indan-1-yl)methyl]-1-hydroxy-2-isopropyl-5-methyl-cyclohexanecarboxamide] | 4.8 | 1.8
8 | CC(C)[C@@H]1CC[C@@H](C)C[C@@]1(O)C(=O)NC1CCC(F)(F)CC1 [Example 147, (1S,2S,5R)-N-(4,4-difluorocyclohexyl)-1-hydroxy-2-isopropyl-5-methyl-cyclohexanecarboxamide] | 1160 | 901
9 | CC(C)[C@@H]1CC[C@@H](C)C[C@@]1(O)C(=O)NCC(=O)c1sccc1Cl [Example 148, (1S,2S,5R)-N-[2-(3-chloro-2-thienyl)-2-oxo-ethyl]-1-hydroxy-2-isopropyl-5-methyl-cyclohexanecarboxamide] | 4 | 4
10 | CC(C)[C@@H]1CC[C@@H](C)C[C@@]1(O)C(=O)NCC(=O)c1c[nH]c2ccccc12 [Example 150, (1S,2S,5R)-1-hydroxy-N-[2-(1H-indol-3-yl)-2-oxo-ethyl]-2-isopropyl-5-methyl-cyclohexanecarboxamide] | 4 | 4
11 | CC(C)[C@@H]1CC[C@@H](C)C[C@@]1(O)C(=O)NCc1c[nH]c2ccccc12 [Example 151] | 188 | 126
12 | COc1ccc2c(c1)CCC2CNC(=O)[C@]1(O)C[C@H](C)CC[C@H]1C(C)C (stereo partly drawn) [Example 152, (1S,2S,5R)-1-hydroxy-2-isopropyl-N-[(5-methoxyindan-1-yl)methyl]-5-methyl-cyclohexanecarboxamide] | 310 | 47
13 | Cc1[nH]c2ccccc2c1CCNC(=O)[C@]1(O)C[C@H](C)CC[C@H]1C(C)C [Example 153, (1S,2S,5R)-1-hydroxy-2-isopropyl-5-methyl-N-[2-(2-methyl-1H-indol-3-yl)ethyl]cyclohexanecarboxamide] | 130 | 76
